Laboratory results reported in PubChem BioAssay AID1259411 (Chemical Carcinogenesis Research Information System (CCRIS), 2018).
The source made the active and inactive calls. No rule for the calls is given here.

Test system: rodent carcinogenicity bioassays, tumor incidence
Test: CCRIS carcinogenicity studies
How it was run: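 NCI-built, expert-reviewed records of carcinogenicity and related test outcomes (mutagenicity, tumor promotion/inhibition) compiled from published and report sources, historical span 1985-2011, not updated.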

Cl/C=C/CCl
carcinogen call (Species: MOUSE, Strain/Sex: B6C3F1/FEMALE, Route: GAVAGE, Dose: 0, 50, 100 MG/KG BODY WT (TELONE II) IN CORN OIL 3 D/WK FOR 104 WK, Dose: 0, 50, 100 MG/KG BODY WT (TELONE II) IN CORN OIL 3 D/WK FOR 104 WK, Tumor Site: Type of Lesion: URINARY BLADDER: TRANSITIONAL CELL CARCINOMA, LUNG: ALVEOLAR/BRONCHIOLAR ADENOMA, ALVEOLAR/BRONCHIOLAR ADENOMA OR CARCIN): active; positive | carcinogen call (Species: MOUSE, Strain/Sex: B6C3F1/FEMALE, Route: INHALATION, Dose: 0, 5, 20, 60 PPM TECHNICAL GRADE 6 HR/D 5 D/WK FOR 2 YR (STUDY DURATION: 2 YR), Dose: 0, 5, 20, 60 PPM TECHNICAL GRADE 6 HR/D 5 D/WK FOR 2 YR (STUDY DURATION: 2 YR)): inactive; negative | carcinogen call (Species: MOUSE, Strain/Sex: B6C3F1/FEMALE, Route: ORAL, Dose: 0, 2.5, 25, 50 MG/KG BW IN DIET FOR 104 WK (STUDY DURATION: 104 WK), Dose: 0, 2.5, 25, 50 MG/KG BW IN DIET FOR 104 WK (STUDY DURATION: 104 WK)): inactive; negative | carcinogen call (Species: MOUSE, Strain/Sex: B6C3F1/MALE, Route: INHALATION, Dose: 0, 5, 20, 60 PPM TECHNICAL GRADE 6 HR/D 5 D/WK FOR 2 YR (STUDY DURATION: 2 YR), Dose: 0, 5, 20, 60 PPM TECHNICAL GRADE 6 HR/D 5 D/WK FOR 2 YR (STUDY DURATION: 2 YR), Tumor Site: Type of Lesion: LUNG: BRONCHIOALVEOLAR ADENOMA): active; positive | carcinogen call (Species: MOUSE, Strain/Sex: B6C3F1/MALE, Route: ORAL, Dose: 0, 2.5, 25, 50 MG/KG BW IN DIET FOR 104 WK (STUDY DURATION: 104 WK), Dose: 0, 2.5, 25, 50 MG/KG BW IN DIET FOR 104 WK (STUDY DURATION: 104 WK)): inactive; negative | carcinogen call (Species: RAT, Strain/Sex: F344/FEMALE, Route: GAVAGE, Dose: 0, 25, 50 MG/KG BODY WT (TELONE II) IN CORN OIL 3 D/WK FOR 104 WK, Dose: 0, 25, 50 MG/KG BODY WT (TELONE II) IN CORN OIL 3 D/WK FOR 104 WK, Tumor Site: Type of Lesion: FORESTOMACH: SQUAMOUS CELL PAPILLOMA): active; positive | carcinogen call (Species: RAT, Strain/Sex: F344/FEMALE, Route: INHALATION, Dose: 0, 5, 20, 60 PPM TECHNICAL GRADE 6 HR/D 5 D/WK FOR 2 YR (STUDY DURATION: 2 YR), Dose: 0, 5, 20, 60 PPM TECHNICAL GRADE 6 HR/D 5 D/WK FOR 2 YR (STUDY DURATION: 2 YR)): inactive; negative | carcinogen call (Species: RAT, Strain/Sex: F344/FEMALE, Route: ORAL, Dose: 0, 2.5, 12.5, 25 MG/KG BW IN DIET FOR 104 WK (STUDY DURATION: 104 WK), Dose: 0, 2.5, 12.5, 25 MG/KG BW IN DIET FOR 104 WK (STUDY DURATION: 104 WK), Tumor Site: Type of Lesion: LIVER: HEPATOCELLULAR ADENOMA): active; positive | carcinogen call (Species: RAT, Strain/Sex: F344/MALE, Route: GAVAGE, Dose: 0, 25, 50 MG/KG BODY WT (TELONE II) IN CORN OIL 3 D/WK FOR 104 WK, Dose: 0, 25, 50 MG/KG BODY WT (TELONE II) IN CORN OIL 3 D/WK FOR 104 WK, Tumor Site: Type of Lesion: FORESTOMACH: SQUAMOUS CELL PAPILLOMA, SQUAMOUS CELL PAPILLOMA OR CARCINOMA, LIVER: NEOPLASTIC NODULE, NEOPLASTIC NODULE): active; positive | carcinogen call (Species: RAT, Strain/Sex: F344/MALE, Route: INHALATION, Dose: 0, 5, 20, 60 PPM TECHNICAL GRADE 6 HR/D 5 D/WK FOR 2 YR (STUDY DURATION: 2 YR), Dose: 0, 5, 20, 60 PPM TECHNICAL GRADE 6 HR/D 5 D/WK FOR 2 YR (STUDY DURATION: 2 YR)): inactive; negative | carcinogen call (Species: RAT, Strain/Sex: F344/MALE, Route: ORAL, Dose: 0, 2.5, 12.5, 25 MG/KG BW IN DIET FOR 104 WK (STUDY DURATION: 104 WK), Dose: 0, 2.5, 12.5, 25 MG/KG BW IN DIET FOR 104 WK (STUDY DURATION: 104 WK), Tumor Site: Type of Lesion: LIVER: HEPATOCELLULAR ADENOMA): active; positive

C=C/C=C\C1C2/C=C/CC(=O)O[C@@]34C[C@@H](C)[C@]5(O)C6C=C(C)C(=O)[C@@]6(O)CC(CO)=C[C@H]5[C@@H]3[C@@]4(C)COC(=O)C2C2C(/C=C/C=C/C=C/CCC)C12 (stereo partly specified)
carcinogen call (Species: MOUSE, Strain/Sex: CD-1/FEMALE (15), Route: DERMAL, Dose: 0, 2 UG IN 0.1 ML OF METHANOL 2/WK FOR 16 WK BEGINNING 1 WK POST CARCINOGEN DOSE THEN 5 UG 2/WK FOR 13 WK (STUDY DURATIO): inactive; negative

CCSCC[C@H](N)C(=O)O
carcinogen call (Species: RAT, Strain/Sex: SPRAGUE-DAWLEY/MALE,FEMALE, Route: ORAL, Dose: 0.25% IN DIET FOR 38 WK (AVE), Tumor Site: Type of Lesion: LIVER: CARCINOMA): active; positive | carcinogen call (Species: RAT, Strain/Sex: SPRAGUE-DAWLEY/MALE, Route: ORAL, Dose: 0, 0.05% IN CHOLINE-FREE DIET FOR 12 MO (STUDY DURATION: 12 MO), Tumor Site: Type of Lesion: LIVER: HEPATOCELLULAR CARCINOMA): active; positive | carcinogen call (Species: RAT, Strain/Sex: SPRAGUE-DAWLEY/MALE, Route: ORAL, Dose: 0, 0.1% IN CHOLINE-FREE DIET FOR 12 MO (STUDY DURATION: 12 MO)): inactive; negative | carcinogen call (Species: RAT, Strain/Sex: STRAIN-CD/MALE, Route: ORAL, Dose: 0.2% IN NONTOXIC PEANUT MEAL DIET FOR 380 D, Tumor Site: Type of Lesion: LIVER): active; positive
